Measured values: ChEMBL document CHEMBL5360573, “Discovery of novel tryptamine derivatives as GluN2B subunit-containing NMDA receptor antagonists via pharmacophore-merging strategy with orally available therapeutic effect of cerebral ischemia” (Eur J Med Chem, 2023)
Values belong to the molecule of their own block, whether it stands above or below them. Activity calls are given as the source filed them. No cut-off for these calls is given here.

What was measured:
[1] = tested on: SH-SY5Y; assay: Neuroprotective activity against NMDA-induced cell injury in human SH-SY5Y cells assessed as cell viability at 0.05 uM incubated for 6 hrs followed by NMDA treatment for 0.5 hrs and subsequent replacement of fresh medium without compounds by MTT assay relative to control; assay type: functional; conditions: time 6.5 hrs, read-out: Activity
[2] = tested on: SH-SY5Y; assay: Neuroprotective activity against NMDA-induced cell injury in human SH-SY5Y cells assessed as cell viability at 0.5 uM incubated for 6 hrs followed by NMDA treatment for 0.5 hrs and subsequent replacement of fresh medium without compounds by MTT assay relative to control; assay type: functional; conditions: time 6.5 hrs, read-out: Activity
[3] = tested on: SH-SY5Y; assay: Neuroprotective activity against NMDA-induced cell injury in human SH-SY5Y cells assessed as cell viability at 5 uM incubated for 6 hrs followed by NMDA treatment for 0.5 hrs and subsequent replacement of fresh medium without compounds by MTT assay relative to control; assay type: functional; conditions: time 6.5 hrs, read-out: Activity
[4] = target: Glutamate receptor ionotropic, NMDA 2B (Homo sapiens) (UniProt Q13224); assay: Antagonist activity against GluN2B NMDAR in human SH-SY5Y cells assessed as reduction in NMDA-induced intracellular influx at 5 uM incubated for 6 hrs followed by replacement of fresh medium without compounds and subsequent NMDA treatment by Fluo-4AM dye based calcium mobilization assay; assay type: cell-based; conditions: filed as antagonist
[5] = Metabolic stability in human plasma assessed as compound remaining at 2 uM measured immediately by LC-MS/MS analysis; assay type: ADME, cell-free; conditions: read-out: Stability
[6] = Metabolic stability in human plasma assessed as compound remaining at 2 uM measured after 10 mins by LC-MS/MS analysis; assay type: ADME, cell-free; conditions: read-out: Stability
[7] = Metabolic stability in human plasma assessed as compound remaining at 2 uM measured after 30 mins by LC-MS/MS analysis; assay type: ADME, cell-free; conditions: read-out: Stability
[8] = Metabolic stability in human plasma assessed as compound remaining at 2 uM measured after 60 mins by LC-MS/MS analysis; assay type: ADME, cell-free; conditions: read-out: Stability
[9] = Metabolic stability in human plasma assessed as compound remaining at 2 uM measured after 120 mins by LC-MS/MS analysis; assay type: ADME, cell-free; conditions: read-out: Stability
[10] = Metabolic stability in human plasma assessed as half life at 2 uM by LC-MS/MS analysis; assay type: ADME, cell-free

Glutamate receptor ionotropic, NMDA 2B (Homo sapiens), sequence (Q13224 27-1484 limits assumed): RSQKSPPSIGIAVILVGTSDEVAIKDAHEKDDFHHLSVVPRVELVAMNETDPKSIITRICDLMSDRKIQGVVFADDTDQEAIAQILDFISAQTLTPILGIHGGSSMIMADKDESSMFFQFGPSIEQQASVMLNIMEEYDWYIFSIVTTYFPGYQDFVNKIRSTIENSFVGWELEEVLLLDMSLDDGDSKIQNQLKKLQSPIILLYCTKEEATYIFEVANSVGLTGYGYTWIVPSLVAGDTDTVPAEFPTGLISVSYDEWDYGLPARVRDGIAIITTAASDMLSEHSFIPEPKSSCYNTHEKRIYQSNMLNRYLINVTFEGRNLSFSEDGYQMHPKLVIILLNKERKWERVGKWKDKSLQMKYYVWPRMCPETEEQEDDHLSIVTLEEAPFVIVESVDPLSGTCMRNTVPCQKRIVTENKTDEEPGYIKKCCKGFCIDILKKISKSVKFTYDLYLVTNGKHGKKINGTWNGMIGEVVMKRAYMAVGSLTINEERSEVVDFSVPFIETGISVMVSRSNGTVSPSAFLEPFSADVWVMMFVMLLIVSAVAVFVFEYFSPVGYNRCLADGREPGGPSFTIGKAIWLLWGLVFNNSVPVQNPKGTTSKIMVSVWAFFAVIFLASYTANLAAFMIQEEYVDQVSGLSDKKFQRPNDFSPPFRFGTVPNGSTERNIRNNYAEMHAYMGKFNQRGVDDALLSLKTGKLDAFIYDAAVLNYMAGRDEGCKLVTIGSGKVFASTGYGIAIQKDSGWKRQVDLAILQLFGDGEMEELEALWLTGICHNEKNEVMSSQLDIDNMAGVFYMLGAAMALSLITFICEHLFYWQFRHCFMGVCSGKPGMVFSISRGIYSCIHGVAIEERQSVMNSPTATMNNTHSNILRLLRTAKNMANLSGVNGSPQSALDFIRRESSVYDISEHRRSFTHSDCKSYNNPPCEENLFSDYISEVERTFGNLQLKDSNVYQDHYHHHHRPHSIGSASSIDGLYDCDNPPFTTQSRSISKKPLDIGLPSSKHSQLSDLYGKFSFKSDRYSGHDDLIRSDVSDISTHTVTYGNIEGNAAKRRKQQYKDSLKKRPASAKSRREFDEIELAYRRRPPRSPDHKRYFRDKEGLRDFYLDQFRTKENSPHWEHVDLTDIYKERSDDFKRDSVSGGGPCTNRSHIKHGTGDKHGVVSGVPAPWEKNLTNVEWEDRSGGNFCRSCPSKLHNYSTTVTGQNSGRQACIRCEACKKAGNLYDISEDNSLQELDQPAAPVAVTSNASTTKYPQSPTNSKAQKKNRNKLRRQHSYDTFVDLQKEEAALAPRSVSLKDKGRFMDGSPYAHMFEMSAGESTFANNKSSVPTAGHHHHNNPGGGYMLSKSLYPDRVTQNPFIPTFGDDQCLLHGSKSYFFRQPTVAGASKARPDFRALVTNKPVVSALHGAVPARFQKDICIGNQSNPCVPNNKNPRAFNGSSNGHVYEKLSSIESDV

SMILES: CC(C)Cn1cc(CCNC(=O)/C=C/c2ccc(O)cc2)c2ccccc21
viability at 0.05 µM [1]: 24.9% | viability at 0.5 µM [2]: 15.7% | viability at 5 µM [3]: 14.4%

SMILES: O=C(CCc1ccc(O)cc1)NCCc1cn(Cc2ccccc2)c2ccccc12
viability at 0.05 µM [1]: 45.3% | viability at 0.5 µM [2]: 50.9% | viability at 5 µM [3]: 52.1%

SMILES: COc1ccc(Cn2cc(CCNC(=O)/C=C/c3ccc(O)cc3)c3ccccc32)cc1
viability at 0.05 µM [1]: 18.6% | viability at 0.5 µM [2]: 24.8% | viability at 5 µM [3]: 30.9%

SMILES: O=C(/C=C/c1ccc(O)cc1)NCCc1cn(Cc2cccc(F)c2)c2ccccc12
viability at 0.05 µM [1]: 28.6% | viability at 0.5 µM [2]: 21.8% | viability at 5 µM [3]: 18.8%

SMILES: O=C(/C=C/c1ccc(O)cc1)NCCc1cn(Cc2ccccc2Cl)c2ccccc12
viability at 0.05 µM [1]: 13.6% | viability at 0.5 µM [2]: 10.1% | viability at 5 µM [3]: 5.9%

SMILES: O=C(NCCc1cn(Cc2ccccc2)c2ccccc12)c1ccc(O)c(O)c1
viability at 0.05 µM [1]: 29.4% | viability at 0.5 µM [2]: 32.1% | viability at 5 µM [3]: 44.9%

SMILES: O=C(/C=C/c1ccc(O)cc1)NCCc1cn(Cc2cccc(Cl)c2)c2ccccc12
viability at 0.05 µM [1]: 32.2% | viability at 0.5 µM [2]: 38.8% | viability at 5 µM [3]: 25.2%

SMILES: O=C(/C=C/c1ccc(O)cc1)NCCc1cn(CCc2ccccc2)c2ccccc12
viability at 0.05 µM [1]: 25.9% | viability at 0.5 µM [2]: 10.1% | viability at 5 µM [3]: 8%

SMILES: O=C(/C=C/c1ccc(O)cc1)NCCc1cn(Cc2ccc(F)cc2)c2ccccc12
viability at 0.05 µM [1]: 35.8% | viability at 0.5 µM [2]: 49.8% | viability at 5 µM [3]: 20.8%

Activity [4]: Active | remaining at 0 min, 2 µM [5]: 100% | remaining at 10 min, 2 µM [6]: 97% | remaining at 0.5 h, 2 µM [7]: 89.6% | remaining at 1 h, 2 µM [8]: 93.5% | remaining at 2 h, 2 µM [9]: 91.3% | half-life at 2 µM [10]: > 4.82 h
SMILES: CC(C(O)c1ccc(O)cc1)N1CCC(Cc2ccccc2)CC1 (stereo unspecified) [IFENPRODIL]
viability at 0.05 µM [1]: 29.4% | viability at 0.5 µM [2]: 40.4% | viability at 5 µM [3]: 41%

SMILES: O=C(/C=C/c1ccc(O)cc1)NCCc1cn(Cc2ccc(Br)cc2)c2ccccc12
viability at 0.05 µM [1]: 42.6% | viability at 0.5 µM [2]: 36.1% | viability at 5 µM [3]: 25.5%

SMILES: O=C(Cc1ccc(O)cc1)NCCc1cn(Cc2ccccc2)c2ccccc12
viability at 0.05 µM [1]: 21.1% | viability at 0.5 µM [2]: 42.2% | viability at 5 µM [3]: 41%

SMILES: O=C(/C=C/c1ccc(O)cc1)NCCc1cn(Cc2ccccc2)c2ccccc12
viability at 0.05 µM [1]: 33% | viability at 0.5 µM [2]: 42.8% | viability at 5 µM [3]: 52.8%
